According to patent publication US20080200693A1, “Derivatives of Aryl (or Heteroaryl) Azolylcarbinols (in Particular Cizolirtin Citrate) for the Treatment of Opioid Addiction” (LABORATORIOS DEL DR. ESTEVE S.A., priority 2004, published 2008):

Test system: male Swiss albino mice
Assay: Determination of withdrawal symptoms (naloxone-induced jumps and shakes in opioid-dependent mice)
Type: in vivo
Method: Pharmacodyn, 1971, 190, pages 213-218 in male Swiss albino mice (weight 20-25 g, Harlan Iberica, S. Feliu de Codinas, Barcelona, Spain).
Opioid dependency is developed in the mice by intraperitoneal administration of the opioid in a suitable dose known to those skilled in the art, e.g. 5 mg/kg/day for 4 consecutive days for morphine. Withdrawal symptoms are then induced by the intravenous administration of a suitable opioid antagonist in a dose known to those skilled in the art, for example, 2 mg/kg naloxone in case of morphine, 30 minutes after the administration of the final dose of the opioid is completed.
In the 30 minute period following the naloxone administration the mice show typical withdrawal symptoms, namely jumps and shakes (of the wet dog shake type), which are counted and registered.
The active substance is administered in combination with the opioid to the mice for 4 consecutive days. After the administration of 2 mg/kg naloxone 30 minutes after the administration of the final dose of the active substance in combination with the opioid has been completed, the mice are closely watched for withdrawal symptoms, namely jumps and shakes (of the wet dog shake type), which are then counted and registered.
The influence of the active substance in combination with an opioid on withdrawal symptoms has been determined as described above.

SMILES | Number of Jumps (morphine 5 mg/kg/day s.c. over 4 days, 2 mg/kg naloxone 30 min after final dose, counted in the following 30 minute period) | Number of shakes (morphine 5 mg/kg/day s.c. over 4 days, 2 mg/kg naloxone 30 min after final dose, wet dog shake type, counted in the following 30 minute period) | withdrawal symptoms usually associated with the administration of opioids (morphine) (co-administration with morphine, administered amount of the opioid not reduced, mice)
CN1CC[C@]23c4c5ccc(O)c4O[C@H]2[C@@H](O)C=C[C@H]3[C@H]1C5 [Morphine] | 6.6 | 16.3 | 
CN(C)CCOC(c1ccccc1)c1ccnn1C.O=C(O)CC(O)(CC(=O)O)C(=O)O (racemic) [Example 1, (±)-5-{α-[2-(dimethylamino)ethoxy]benzyl}-1-methyl-1H-pirazole citrate] |  |  | significantly reduced
